Results on 30 compounds are retold here after patent publication US20240400555A1 (Initial Therapeutics, Inc., priority 2023, published 2024).

A value given as a limit tells only on which side of the number the result lay.

The first test has as its system MV-4-11 cells. In words: Cell Viability Assay in MV-4-11 Cells. Format: cell-based. As to conditions: Homo sapiens, MV4-11, 72 h. In short, it runs like this: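 Luminescent ATP read-out (CellTiter-Glo) after 72 h compound treatment of MV-4-11 leukaemia cells (7,000 per well, IMDM plus 10% FBS). Values expressed relative to DMSO control and derived by four-parameter non-linear regression.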
Regarding `Cc1csc2ccnc(N(C(=O)c3ccc(-c4nnn5c4COCC5)cc3F)[C@@H]3CCCNC3)c12` [Example 635, (R)-4-(6,7-dihydro-4H-[1,2,3]triazolo[5,1-c][1,4]oxazin-3-yl)-2-fluoro-N-(3-methylthieno[3,2-c]pyridin-4-yl)-N-(piperidin-3-yl)benzamide], the half-inhibitory concentration (IC50) turned out to be 100 nM.

The same test, now with this note: Homo sapiens, MV4-11, 72 h, MV-4-11 cells, 72 h, Cell-Titer Glo; read-out: IC50.
As to `Cc1nnc(-c2ccc(C(=O)N(c3nccc4scc(C)c34)[C@@H]3CCCNC3)cn2)s1` [Example 629, 6-(5-methyl-1,3,4-thiadiazol-2-yl)-N-(3-methylthieno[3,2-c]pyridin-4-yl)-N-[(3R)-3-piperidyl]pyridine-3-carboxamide], the concentration for half-maximal inhibition (IC50) stood at 160 nM.

Take `COCc1cn(-c2ccc(C(=O)N(c3nccc4scc(C)c34)[C@@H]3CCCNC3)cc2)nn1` [Example 630, (R)-4-(4-(methoxymethyl)-1H-1,2,3-triazol-1-yl)-N-(3-methylthieno[3,2-c]pyridin-4-yl)-N-(piperidin-3-yl)benzamide]: the IC50 is 160 nM.

Consider `COCc1cn(-c2ccc(C(=O)N(c3nccc4cc(Cl)cc(C)c34)[C@@H]3CCCNC3)cn2)nn1` [Example 631, (R)—N-(6-chloro-8-methylisoquinolin-1-yl)-6-(4-(methoxymethyl)-1H-1,2,3-triazol-1-yl)-N-(piperidin-3-yl)nicotinamide], for which the concentration for half-maximal inhibition (IC50) came to 100 nM.

Take `COCc1cn(-c2ccc(C(=O)N(c3nccc4cc(Cl)cc(C)c34)[C@@H]3CCCNC3)nc2)nn1` [Example 632, (R)—N-(6-chloro-8-methylisoquinolin-1-yl)-5-(4-(methoxymethyl)-1H-1,2,3-triazol-1-yl)-N-(piperidin-3-yl)picolinamide]: the half-inhibitory concentration (IC50) came out at 190 nM.

As for `COCCc1nnc(-c2ccc(C(=O)N(c3nccc4scc(C)c34)[C@@H]3CCCNC3)cc2)s1` [Example 633, (R)-4-(5-(2-methoxyethyl)-1,3,4-thiadiazol-2-yl)-N-(3-methylthieno[3,2-c]pyridin-4-yl)-N-(piperidin-3-yl)benzamide], the 50% inhibitory concentration (IC50) was 31 nM.

On to `COCCc1nnc(-c2ccc(C(=O)N(c3nccc4scc(C)c34)[C@@H]3CCCNC3)c(F)c2)s1` [Example 634, (R)-2-fluoro-4-(5-(2-methoxyethyl)-1,3,4-thiadiazol-2-yl)-N-(3-methylthieno[3,2-c]pyridin-4-yl)-N-(piperidin-3-yl)benzamide], for which the IC50 came out at 140 nM.

With `COCCc1c(-c2ccc(C(=O)N(c3nccc4cc(Cl)cc(C)c34)[C@@H]3CCCNC3)c(F)c2)nnn1C` [Example 636, (R)—N-(6-chloro-8-methylisoquinolin-1-yl)-2-fluoro-4-(5-(2-methoxyethyl)-1-methyl-1H-1,2,3-triazol-4-yl)-N-(piperidin-3-yl)benzamide], the 50% inhibitory concentration (IC50) was determined as 100 nM.

Regarding `COCc1c(-c2ccc(C(=O)N(c3nccc4cc(Cl)cc(C)c34)[C@@H]3CCCNC3)c(F)c2)nnn1C` [Example 637, (R)—N-(6-chloro-8-methylisoquinolin-1-yl)-2-fluoro-4-(5-(methoxymethyl)-1-methyl-1H-1,2,3-triazol-4-yl)-N-(piperidin-3-yl)benzamide], the IC50 amounted to 250 nM.

Take `COCCn1cc(-c2ccc(C(=O)N(c3nccc4scc(C)c34)[C@@H]3CCCNC3)cn2)nn1` [Example 638, (R)-6-(1-(2-methoxyethyl)-1H-1,2,3-triazol-4-yl)-N-(3-methylthieno[3,2-c]pyridin-4-yl)-N-(piperidin-3-yl)nicotinamide]: the concentration for half-maximal inhibition (IC50) was found to be 47 nM.

For the compound `COCCn1cc(-c2ccc(C(=O)N(c3nccc4scc(C)c34)[C@@H]3CCCNC3)cc2)nn1` [Example 639, (R)-4-(1-(2-methoxyethyl)-1H-1,2,3-triazol-4-yl)-N-(3-methylthieno[3,2-c]pyridin-4-yl)-N-(piperidin-3-yl)benzamide], the concentration for half-maximal inhibition (IC50) came out at 150 nM.

Turning to `COCCn1cc(-c2ccc(C(=O)N(c3nccc4scc(C)c34)[C@@H]3CCCNC3)c(F)c2)nn1` [Example 640, (R)-2-fluoro-4-(1-(2-methoxyethyl)-1H-1,2,3-triazol-4-yl)-N-(3-methylthieno[3,2-c]pyridin-4-yl)-N-(piperidin-3-yl)benzamide], the IC50 came out at 85 nM.

Regarding `Cc1cc(C)c2c(N(C(=O)c3ccc(-c4nnc(C)s4)cc3F)[C@@H]3CCCNC3)nccc2c1` [Example 641, (R)—N-(6,8-dimethylisoquinolin-1-yl)-2-fluoro-4-(5-methyl-1,3,4-thiadiazol-2-yl)-N-(piperidin-3-yl)benzamide], the IC50 was 56 nM.

Regarding `Cc1cc(C)c2c(N(C(=O)c3ccc(-c4nnc(C)o4)nc3)[C@@H]3CCCNC3)nccc2c1` [Example 642, (R)—N-(6,8-dimethylisoquinolin-1-yl)-6-(5-methyl-1,3,4-oxadiazol-2-yl)-N-(piperidin-3-yl)nicotinamide], the half-inhibitory concentration (IC50) was found to be 160 nM.

As for `Cc1cc(C)c2c(N(C(=O)c3ccc(-c4nnc(C)o4)cc3F)[C@@H]3CCCNC3)nccc2c1` [Example 643, (R)—N-(6,8-dimethylisoquinolin-1-yl)-2-fluoro-4-(5-methyl-1,3,4-oxadiazol-2-yl)-N-(piperidin-3-yl)benzamide], the IC50 was found to be 64 nM.

In the case of `Cc1cccc2ccnc(N(C(=O)c3ccc(N4CCOC(C)(C)C4)cc3F)[C@@H]3CCCNC3)c12` [Example 644, 4-(2,2-dimethylmorpholin-4-yl)-2-fluoro-N-(8-methyl-1-isoquinolyl)-N-[(3R)-3-piperidyl] benzamide], the IC50 is above 6300 nM.

For the compound `Cc1cccc2ccnc(N(C(=O)c3ccc(N4CCOc5ccccc54)cc3F)[C@@H]3CCCNC3)c12` [Example 645, 4-(2,3-dihydro-1,4-benzoxazin-4-yl)-2-fluoro-N-(8-methyl-1-isoquinolyl)-N-[(3R)-3-piperidyl] benzamide], the 50% inhibitory concentration (IC50) is 2400 nM.

In the case of `Cc1cccc2ccnc(N(C(=O)c3ccc(N4CCOc5cccnc54)cc3F)[C@@H]3CCCNC3)c12` [Example 646, 4-(2,3-dihydropyrido[3,2-b][1,4]oxazin-4-yl)-2-fluoro-N-(8-methyl-1-isoquinolyl)-N-[(3R)-3-piperidyl]benzamide], the IC50 worked out at 2200 nM.

For `Cc1nnc(-c2ccc(C(=O)N(c3nccc4cc(F)cc(C)c34)[C@@H]3CCCNC3)cn2)s1` [Example 647, N-(6-fluoro-8-methyl-1-isoquinolyl)-6-(5-methyl-1,3,4-thiadiazol-2-yl)-N-[(3R)-3-piperidyl] pyridine-3-carboxamide], the IC50 turned out to be 130 nM.

With `Cc1cc(C)c2c(N(C(=O)c3ccc(-c4nnc(C)s4)nc3)[C@@H]3CCCNC3)nccc2c1` [Example 648, (R)—N-(6,8-dimethylisoquinolin-1-yl)-6-(5-methyl-1,3,4-thiadiazol-2-yl)-N-(piperidin-3-yl)nicotinamide], the IC50 was 39 nM.

Take `CCc1nnc(-c2ccc(C(=O)N(c3nccc4scc(C)c34)[C@@H]3CCCNC3)c(F)c2)o1` [Example 649, (R)-4-(5-ethyl-1,3,4-oxadiazol-2-yl)-2-fluoro-N-(3-methylthieno[3,2-c]pyridin-4-yl)-N-(piperidin-3-yl)benzamide]: the IC50 stood at 170 nM.

For `Cc1cc(F)cc2ccnc(N(C(=O)c3ccc(-c4nnc(O)s4)cc3F)[C@@H]3CCCNC3)c12` [Example 650, 2-fluoro-N-(6-fluoro-8-methyl-1-isoquinolyl)-4-(5-hydroxy-1,3,4-thiadiazol-2-yl)-N-[(3R)-3-piperidyl]benzamide], the half-inhibitory concentration (IC50) was determined as 3600 nM.

Take `C=C(C)c1csc2ccnc(N(C(=O)c3ccc(-c4nnc(C)s4)cc3F)[C@@H]3CCCNC3)c12` [Example 651, 2-fluoro-N-(3-isopropenylthieno[3,2-c]686yridine-4-yl)-4-(5-methyl-1,3,4-thiadiazol-2-yl)-N-[(3R)-3-piperidyl]benzamide]: the half-maximal inhibitory concentration (IC50) turned out to be 460 nM.

For the compound `C#Cc1csc2ccnc(N(C(=O)c3ccc(-c4nnc(C)s4)cc3F)[C@@H]3CCCNC3)c12` [Example 652, N-(3-ethynylthieno[3,2-c]pyridine-4-yl)-2-fluoro-4-(5-methyl-1,3,4-thiadiazol-2-yl)-N-[(3R)-3-piperidyl] benzamide], the IC50 was found to be 180 nM.

On to `Cc1nnc(-c2ccc(C(=O)N(c3nccc4scc(Cl)c34)[C@@H]3CCCNC3)c(F)c2)s1` [Example 653, N-(3-chlorothieno[3,2-c] 690yridine-4-yl)-2-fluoro-4-(5-methyl-1,3,4-thiadiazol-2-yl)-N-[(3R)-3-piperidyl] benzamide], for which the IC50 came to 180 nM.

On to `CCc1nnc(-c2ccc(C(=O)N(c3nccc4cc(Cl)cc(C)c34)[C@@H]3CCCNC3)c(F)c2)o1` [Example 654, (R)—N-(6-chloro-8-methylisoquinolin-1-yl)-4-(5-ethyl-1,3,4-oxadiazol-2-yl)-2-fluoro-N-(piperidin-3-yl)benzamide], for which the IC50 was 150 nM.

On to `Cc1cn(-c2ccc(C(=O)N(c3nccc4c(F)ccc(C)c34)[C@@H]3CCCNC3)c(F)c2)nn1` [Example 655, (R)-2-fluoro-N-(5-fluoro-8-methylisoquinolin-1-yl)-4-(4-methyl-1H-1,2,3-triazol-1-yl)-N-(piperidin-3-yl)benzamide], for which the IC50 amounted to 84 nM.

`Cc1ccc(F)c2ccnc(N(C(=O)c3ccc(-c4cn(C)nn4)cc3)[C@@H]3CCCNC3)c12` [Example 656, (R)—N-(5-fluoro-8-methylisoquinolin-1-yl)-4-(1-methyl-1H-1,2,3-triazol-4-yl)-N-(piperidin-3-yl)benzamide]: the IC50 worked out at 180 nM.

For `CCc1nnc(-c2ccc(C(=O)N(c3nccc4c(F)ccc(C)c34)[C@@H]3CCCNC3)c(F)c2)s1` [Example 657, (R)-4-(5-ethyl-1,3,4-thiadiazol-2-yl)-2-fluoro-N-(5-fluoro-8-methylisoquinolin-1-yl)-N-(piperidin-3-yl)benzamide], the half-inhibitory concentration (IC50) is 170 nM.

As for `Cc1cc(C2CCN(C(=O)N(c3nccc4cc(F)cc(C)c34)[C@@H]3CCCNC3)CC2)on1` [Example 658, (R)—N-(6-fluoro-8-methylisoquinolin-1-yl)-4-(3-methylisoxazol-5-yl)-N-(piperidin-3-yl)piperidine-1-carboxamide], the IC50 was 610 nM.

For orientation: IC50 means the concentration at which inhibition is half-maximal.
